# Source: US20060167094A1, “Satiety agent” (priority 2005, published 2006)
# Key:
# [1] = Appetite perceptions (VAS scores) during and after 90 min intraduodenal infusion; format: in vivo, human
# Description: (§1) Each subject was studied on three occasions, separated by 3-10 days, to evaluate, in a double-blind, randomized fashion, the effects of intraduodenal infusions of 1) C12, 2) C10, or 3) control solution for 90 min on appetite perceptions, energy intake, APD pressures, and plasma CCK and GLP-1 concentrations.
# (§2) Once the catheter was positioned correctly, fasting motility was monitored until the occurrence of phase III of the interdigestive migrating motor complex (MMC). Immediately after the cessation of phase III activity [at time t=−15 min], a baseline venous blood sample was taken, and a visual analog scale questionnaire (VAS) (see Measurements), assessing appetite-related sensations, was administered. At t=0 min (i.e., during phase I of the MMC), the duodenal infusion of 1) C12, 2) C10, or 3) control solution was commenced and continued for 90 min. APD pressures were monitored throughout the infusion period; blood samples were taken, and the VAS administered every 15 min from t=0 min until t=90 min. At t=90 min, the infusion was terminated, and the subject was immediately extubated and offered a cold buffet-style meal, the composition of which is provided in Table 1. The amount of food offered was in excess of what the subject was expected to consume. The subject was given 30 min (i.e., t=90 min to t=120 min) to consume the meal and instructed to eat until comfortably full. After ingestion of the meal, the subject was monitored for a further 30 min, a further VAS was completed, and blood samples were taken at t=120 and 150 min. The intravenous cannula was then removed, and the subject was allowed to leave the laboratory.
# Appetite sensations and energy intake. Subjective sensations of appetite, including hunger, fullness, desire to eat, prospective consumption (“how much food do you think you could eat if you were given a meal now?”), were assessed using validated VASs (Sensations of nausea and bloating were also assessed. Each VAS evaluated a sensation on a 100-mm horizontal line, where 0 represented “sensation is not felt at all” and 100 represented “sensation is felt the greatest.” Subjects were asked to place a vertical stroke on the 100-mm line in relation to what they were feeling at that particular point in time.
# Baseline (“0”) values were calculated as the mean of values obtained at t=−15 and 0 min for VAS scores and plasma hormone concentrations and between t=−15 to 0 min for basal pyloric pressures, number, and amplitude of IPPWs, antral and duodenal PWs, and total number of duodenal PWSs. Basal pyloric pressures and the number and amplitude of IPPWs were expressed as means over 15-min segments during the 90-min infusion period. Numbers and amplitudes of antral and duodenal PWs were expressed as total number and mean values, respectively, for the 90-min infusion period. Duodenal PWSs were expressed as the total number of waves travelling over two, three, four, five, six, and seven channels during the 90-min infusion period. All data, except for plasma CCK and GLP-1 concentrations, were expressed as changes from baseline.
# VAS scores, basal pyloric pressures, number and amplitude of IPPWs, and plasma hormone concentrations were analyzed by repeated-measures mixed model analysis of covariance (ANCOVA), with baseline as the covariate and time (0-90 min, at 15-min intervals) and treatment as within-subject factors. One-way ANOVA was used to assess the effect of treatment on energy intake, time taken to complete eating, total numbers and mean amplitudes of antral and duodenal PWs, and total number of duodenal PWSs. A logarithmic transformation was applied to nausea scores, antral amplitudes, and duodenal PWSs travelling 7.5 and 9 cm to better address the underlying assumptions of the models used (as these variables lacked normal distribution). If significance or near significance ([…]) was found, post hoc comparisons of least-squares means using Student's t-tests were performed. […]
# CCK secretion = settings: gastric infusion, humans; cited from earlier work
# [2] = at similar concentrations; cited from earlier work
# [3] = Energy intake from the buffet meal after intraduodenal infusion; format: in vivo, human
# Description: as §1, §2
# Energy intake from the buffet meal [energy consumption (in kJ) and macronutrient distribution (in % and g energy)] was analyzed using commercially available software (Food works 3.0, Xyris Software; Highgate Hill, Queensland, Australia). The time taken to finish the meal (in min) was also evaluated.
# plasma GLP-1 = experiment: Plasma GLP-1 concentrations by radioimmunoassay; format: in vivo, human
# Description: as §2
# (§3) Venous blood samples (10 ml) were collected in ice-chilled EDTA-treated tubes containing 400 kIU aprotinin (Trasylol, Bayer Australia) per millilitre of blood. Plasma was separated by centrifugation (3,200 rpm, 15 min, 4° C.) within 30 min of collection and stored at −70° C. until assayed.
# Plasma GLP-1 concentrations (in pmol/l) were measured by radioimmunoassay using an adaptation of a previously published method (4) Antibody, supplied by Prof. […] It is likely that this antibody also reacts with the degraded form of GLP-1(9-36) amide. Intra-assay CV was 17% and interassay CV was 18%, with a sensitivity of 1.5 pmol/l.
# [4] = system: pancreatic bicarbonate secretion; settings: luminal fatty acid; cited from earlier work
# plasma CCK = experiment: Plasma CCK concentrations by radioimmunoassay; format: in vivo, human
# Description: as §2, §3
# Plasma CCK concentrations (in pmol/l) were determined after ethanol extraction using a previously described radioimmunoassay (3). A commercially available antibody (C258, Lot 105H4852, Sigma Chemical) raised in rabbits against the synthetic sulfated CCK-8 was employed. […] The intra-assay coefficient of variation (CV) was 9% and the interassay CV was 27%, with a sensitivity of 2.5 pmol/l. The sensitivity of the assay relates to its reliable detection limit.
# [5] = cited from earlier work
# [6] = during 90 min intraduodenal infusion, 0.375 kcal/min, compared with control
# [7] = buffet meal, compared with control
smiles,measurement,setting,value
"CCCCCCCCCCCC(=O)O [C12, lauric acid]",fullness (VAS) after meal ingestion,"[1]; at 120 and 150 min, after the buffet meal",less after C12 than C10
same,mean score for nausea after termination of infusion,[1]; by 120 min (infusion terminated at 90 min),close to baseline
same,scores for bloating (VAS),"[1]; during 90 min intraduodenal infusion, 0.375 kcal/min",increased the scores for bloating
same,nausea scores (VAS),[1]; [6],increased nausea scores compared with control
same,scores for hunger (VAS),[1]; [6],lower compared with control
same,scores for prospective consumption (VAS),[1]; [6],lower compared with control
same,scores for desire to eat (VAS),"[1]; during 90 min intraduodenal infusion, 0.375 kcal/min, healthy males, compared with control",lower compared with control
same,subjects reporting nausea,"[1]; during C12 infusion 0.375 kcal/min, randomized study of 8 subjects",Five of the eight
same,stimulation of CCK secretion,CCK secretion,reported to stimulate CCK secretion
same,cytotoxicity relative to C18:1,[2],half as cytotoxic as C18:1
same,energy intake at buffet meal,"[3]; after 90 min intraduodenal infusion 0.375 kcal/min, compared with control",dramatically decreased energy intake compared with control
same,reduction of energy intake compared with the control infusion,"[3]; all subjects, C12 total energy delivered 141 kJ","~2,857 kJ"
same,amount of energy (in g) ingested from carbohydrate,[3]; [7],reduced
same,amount of energy (in g) ingested from fat,[3]; [7],reduced
same,amount of energy (in g) ingested from protein,[3]; [7],reduced
same,potency as suppressant of energy intake relative to C18:1,"[3]; isoenergetic amounts, intraduodenal, humans",more potent suppressant of energy intake
same,time at which eating from the buffet meal was completed,"[3]; mean±SE, not statistically significant",13 ± 3.5 min
same,energy intake in the absence of nausea,[3]; non-nauseated subjects,inhibited energy intake in the absence of nausea
same,magnitude of the reduction in energy intake,[3]; subjects that did not experience nausea,"~1,801 kJ"
same,magnitude of the reduction in energy intake,[3]; subjects who reported nausea,"~3,840 kJ"
same,delay until plasma GLP-1 concentrations rose,plasma GLP-1; after the start of infusion,30 min
same,plasma GLP-1 concentrations compared with control,"plasma GLP-1; during infusion, C12 effect from 30 to 90 min",increased plasma GLP-1
same,plasma GLP-1 concentrations compared with C10,plasma GLP-1; from 45 to 90 min,increased plasma GLP-1
same,plasma GLP-1 concentrations after meal ingestion,"plasma GLP-1; t=120 and 150 min, compared with control",higher after the C12 infusion compared with both control
same,GLP-1 level higher than after ingestion of the buffet meal after the control infusion,"plasma GLP-1; versus level after ingestion of ~4,528 kJ",40%
same,"secretion of pancreatic bicarbonate relative to C10, C16, C18:0, C18:1 and C18:2",[4],more than twice as much
same,plasma CCK concentrations,"plasma CCK; during 90 min infusion, compared with control",increased plasma CCK compared with control
same,time of rapid rise in plasma CCK,"plasma CCK; from start of infusion, then plateaued",≤ 15 min
same,magnitude of the rise in plasma CCK,"plasma CCK; in the first 15 min of infusion, 0.375 kcal/min",~12 pmol/L
same,plasma CCK level relative to postprandial level,plasma CCK; versus levels after the buffet meal following control infusion,comparable to postprandial levels after the control infusion
same,adverse effects of perfusion into human duodenum,[5]; 0.36 kcal/min,without adverse effects
same,rate of emptying from the human stomach,[5]; in vivo,0.375 kcal/min
